Measured values from EP2140864A2 (H. Lundbeck A/S, priority 2001, dated 2002).
Like-named read-outs stand apart in the source and are kept apart here.

Legend:
[1] = biological target: T1, human GAL1 receptor (Homo sapiens, UniProt P47211); assay: Radioligand binding at cloned human GAL1 receptor
T1 construct: expressed in transfected cells
T1 sequence (P47211 1-349): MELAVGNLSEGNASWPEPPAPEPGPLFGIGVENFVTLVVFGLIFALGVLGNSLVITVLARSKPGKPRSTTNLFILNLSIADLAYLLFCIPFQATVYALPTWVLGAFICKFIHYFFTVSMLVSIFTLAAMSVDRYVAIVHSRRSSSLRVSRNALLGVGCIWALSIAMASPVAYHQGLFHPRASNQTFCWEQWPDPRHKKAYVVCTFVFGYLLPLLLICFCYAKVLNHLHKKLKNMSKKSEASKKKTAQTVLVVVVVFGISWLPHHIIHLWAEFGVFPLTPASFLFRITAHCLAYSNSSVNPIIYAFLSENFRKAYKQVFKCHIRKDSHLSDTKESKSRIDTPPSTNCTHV
Description: The binding properties of the pyrimidines of the present invention were evaluated at the cloned human galanin receptors, GAL1, GAL2, and GAL3, using protocols described herein. […]
(§1) LM(tk-) cells were stably transfected with the human GAL1 or GAL3 receptor. CHO cells were stably transfected with the human GAL2 receptor.
(§2) cDNAs for the human and rat GAL1, and human and rat GAL3 receptors were transfected with a G-418 resistant gene into the mouse fibroblast LM(tk-) cell line by a calcium phosphate transfection method (Cullen, 1987). Stably transfected cells were selected with G-418. Human and rat GAL2 receptors were similarly transfected into CHO cells.
(§3) Membranes were harvested from stably transfected LM(tk-) cells. Adherent cells were washed twice in ice-cold phosphate buffered saline (138 mM NaCl, 8.1 mM Na2HPO4, 2.5 mM KCl, 1.2 mM KH2PO4, 0.9 mM CaCl2, 0.5 mM MgCl2, pH 7.4) and lysed by sonication in ice-cold sonication buffer (20 mM Tris-HCl, 5 mM EDTA, pH 7.7). Large particles and debris were cleared by low speed centrifugation (200 x g, 5 min, 4°C). Membranes were collected from the supernatant fraction by centrifugation (32,000 x g, 18 min, 4°C), washed with ice-cold hypotonic buffer, and collected again by centrifugation (32,000 x g, 18 min, 4°C). The final membrane pellet was resuspended by sonication into a small volume of ice-cold binding buffer (-1 ml for every 5 plates: 10 mM NaCl, 20 mM HEPES, 0.22 mM KH2PO4, 1.26 mM CaCl2, 0.81 mM MgSO4, pH 7.4). Protein concentration was measured by the Bradford method (Bradford, 1976) using Bio-Rad Reagent, with bovine serum albumin as a standard. Membranes were held on ice for up to one hour and used fresh, or flash frozen and stored in liquid nitrogen. Membranes were prepared similarly from CHO cells.
(§4) Galanin Recentors: Binding assays were performed according to the following published methods: human GAL3 (PCT International Publication No. WO 98/15570), human GAL1 (PCT International Publication No. WO 95/2260), human GAL2 (PCT International Publication No. WO 97/26853).
(§5) Binding data were analyzed using nonlinear regression and statistical techniques available in the GraphPAD Prism package (San Diego, CA). Enzymatic assay data were derived from a standard curve of reference compound data.

[2] = biological target: T2, human GAL2 receptor (Homo sapiens, UniProt O43603); assay: Radioligand binding at cloned human GAL2 receptor
T2 construct: expressed in transfected cells
T2 sequence (O43603 1-387): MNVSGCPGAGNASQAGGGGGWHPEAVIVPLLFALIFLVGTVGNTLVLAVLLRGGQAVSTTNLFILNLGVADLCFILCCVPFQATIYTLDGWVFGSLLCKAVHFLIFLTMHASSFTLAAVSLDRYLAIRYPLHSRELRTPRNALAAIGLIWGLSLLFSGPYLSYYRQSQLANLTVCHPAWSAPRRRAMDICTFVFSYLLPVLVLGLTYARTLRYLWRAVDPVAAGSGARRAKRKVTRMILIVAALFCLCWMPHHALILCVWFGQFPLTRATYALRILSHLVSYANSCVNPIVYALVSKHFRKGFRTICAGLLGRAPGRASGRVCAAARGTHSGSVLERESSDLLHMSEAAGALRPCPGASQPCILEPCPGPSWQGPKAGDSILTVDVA
Description: The binding properties of the pyrimidines of the present invention were evaluated at the cloned human galanin receptors, GAL1, GAL2, and GAL3, using protocols described herein.
The binding properties of the indolones of the present invention were evaluated at the cloned human galanin receptors, GAL1, GAL2, and GAL3, using protocols described herein.
as §1, §2, §3, §4, §5

[3] = biological target: T3, human GAL3 receptor (Homo sapiens, UniProt O60755); assay: Radioligand binding at cloned human GAL3 receptor
T3 construct: expressed in transfected cells
T3 sequence (O60755 1-368): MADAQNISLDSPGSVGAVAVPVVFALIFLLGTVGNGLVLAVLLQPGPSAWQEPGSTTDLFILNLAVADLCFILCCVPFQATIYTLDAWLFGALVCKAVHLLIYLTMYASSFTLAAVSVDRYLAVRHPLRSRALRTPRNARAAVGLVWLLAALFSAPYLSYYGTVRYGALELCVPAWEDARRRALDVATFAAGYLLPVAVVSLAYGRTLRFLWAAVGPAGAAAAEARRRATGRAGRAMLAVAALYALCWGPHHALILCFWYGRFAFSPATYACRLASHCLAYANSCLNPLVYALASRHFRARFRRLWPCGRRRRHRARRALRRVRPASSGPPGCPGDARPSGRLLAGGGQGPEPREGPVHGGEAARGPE
Outline: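 Compound vehicle, as final assay concentration, was 3% DMSO (indolones) or 1% ethanol/0.09% polypuronic acid F-127 (pyrimidines). Binding measured on fresh or frozen membranes of stably transfected LM(tk-) mouse fibroblasts carrying cloned human GAL3, in pH 7.4 HEPES buffer; values derived by nonlinear regression.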

[4] = pyrimidines, read-out: Ki GalR1
[5] = pyrimidines, read-out: Ki GalR2
[6] = pyrimidines, cloned human receptor; read-out: Ki GalR3

SMILES	Ki [1, 4] [nM]	Ki [2, 5] [nM]	Ki [3, 6] [nM]	Ki ([1]; read-out: Ki GalR1, pyrimidines) [nM]	Ki ([2]; read-out: Ki GalR2, pyrimidines) [nM]	Ki ([3]; read-out: Ki GalR3; pyrimidines, cloned human receptor) [nM]
Cc1ccc(Nc2cc(N3CCCCC3)nc(N(C)C3CCCCC3)n2)cc1 [Example 1]	668	188	35	–	–	–
COCCN(c1nc(Nc2ccc(C)cc2)cc(N2CCCCC2)n1)C1CCCCC1 [Example 2]	2820	562	26	–	–	–
Cc1ccc(Nc2cc(N3CCCCC3)nc(Nc3ccc(Cl)cc3)n2)cc1 [Example 5]	> 5000	> 5000	345	–	–	–
Cc1ccc(Nc2cc(N3CCCCC3)nc(N(C)c3ccccc3)n2)cc1 [Example 6]	–	2160	248	–	–	–
Cc1ccc(Nc2cc(N3CCCCC3)nc(N(C)c3ccc(C)cc3)n2)cc1 [Example 7]	1110	775	177	–	–	–
Cc1ccc(Nc2cc(N3CCCCC3)nc(NCCc3c[nH]c4ccc(C)cc34)n2)cc1 [Example 8]	–	795	264	–	–	–
COc1ccc2[nH]cc(CCNc3nc(Nc4ccc(C)cc4)cc(N4CCCCC4)n3)c2c1 [Example 9]	–	2110	568	–	–	–
Cc1ccc(Nc2cc(N3CCCCC3)nc(NCCc3c[nH]c4ccccc34)n2)cc1 [Example 10]	–	865	100	–	–	–
CN(CCc1c[nH]c2ccccc12)c1nc(Nc2ccc3ccccc3c2)cc(N2CCCCC2)n1 [Example 13]	2070	1410	81	–	–	–
CN(CCc1c[nH]c2ccccc12)c1nc(Nc2cccc(F)c2)cc(N2CCCCC2)n1 [Example 14]	–	1340	54	–	–	–
CCN(CCc1c[nH]c2ccccc12)c1nc(Nc2ccc(C)cc2)cc(N2CCCCC2)n1 [Example 18]	3590	543	40	–	–	–
COCCN(CCc1c[nH]c2ccccc12)c1nc(Nc2ccc(C)cc2)cc(N2CCCCC2)n1 [Example 19]	–	1770	79	–	–	–
Cc1ccc(Nc2cc(N3CCCCC3)nc(NC(C)Cc3c[nH]c4ccccc34)n2)cc1 (stereo not drawn) [Example 20]	> 5000	> 5000	164	–	–	–
Cc1ccc(Nc2cc(N3CCCCC3)nc(N(C)C(C)Cc3c[nH]c4ccccc34)n2)cc1 (stereo not drawn) [Example 21]	4790	1100	49	–	–	–
Cc1ccc(Nc2cc(N3CCCCC3)nc(N3CCC(c4ccccc4)CC3)n2)cc1 [Example 24]	–	3960	210	–	–	–
Cc1ccc(Nc2cc(N3CCCCC3)nc(N3CCN(c4ccccc4)CC3)n2)cc1 [Example 25]	> 5000	1500	548	–	–	–
CCc1ccccc1N1CCN(c2nc(Nc3ccc(C)cc3)cc(N3CCCCC3)n2)CC1 [Example 26]	–	4050	85	–	–	–
Cc1ccc(Nc2cc(N3CCCCC3)nc(N3CCN(c4c(C)cccc4C)CC3)n2)cc1 [Example 27]	2690	272	63	–	–	–
COc1ccc(N2CCN(c3nc(Nc4ccc(C)cc4)cc(N4CCCCC4)n3)CC2)c(OC)c1 [Example 28]	–	–	–	> 5000	> 5000	270
Cc1ccc(Nc2cc(N3CCCCC3)nc(N3CCN(c4cccc(C(F)(F)F)c4)CC3)n2)cc1 [Example 29]	716	359	46	–	–	–

SMILES	Ki [1, 4] [nM]	Ki [2, 5] [nM]	Ki [3, 6] [nM]	Ki ([1]; read-out: Ki GalR1, pyrimidines) [nM]	Ki ([2]; read-out: Ki GalR2, pyrimidines) [nM]	Ki ([3]; read-out: Ki GalR3; pyrimidines, cloned human receptor) [nM]
Cc1ccc(Nc2cc(N3CCCCC3)nc(N3CCN(c4ccccn4)CC3)n2)cc1 [Example 30]	–	2610	197	–	–	–
Cc1ccc(Nc2cc(N3CCCCC3)nc(N3CCN(c4ncccc4C)CC3)n2)cc1 [Example 31]	–	3400	174	–	–	–
Cc1ccc(Nc2cc(N3CCCCC3)nc(N3CCN(c4cc(C(F)(F)F)ccn4)CC3)n2)cc1 [Example 32]	–	1860	145	–	–	–
FC(F)(F)c1cccnc1N1CCN(c2nc(NC3CC4CCC3C4)cc(N3CCCCC3)n2)CC1 (stereo not drawn) [Example 36]	442	90	93	–	–	–
Cc1ccc(Nc2cc(N3CCCCC3)nc(N3CCN(c4ncccn4)CC3)n2)cc1 [Example 37]	–	903	343	–	–	–
Cc1ccc(Nc2cc(N3CCCCC3)nc(N3CCCC3)n2)cc1 [Example 38]	2900	516	320	–	–	–
Cc1ccc(Nc2cc(N3CCCCC3)nc(N3CCCc4ccccc43)n2)cc1 [Example 40]	–	2620	164	–	–	–
Cc1ccc(Nc2cc(N3CCCCC3)nc(N3CCc4ccccc4C3)n2)cc1 [Example 41]	2130	840	151	–	–	–
COc1cc2c(cc1OC)CN(c1nc(Nc3ccc(C)cc3)cc(N3CCCCC3)n1)CC2 [Example 42]	–	1140	275	–	–	–
Cc1ccc(Nc2cc(N3CCCCC3)nc(N3CCC(O)(c4ccccc4)CC3)n2)cc1 [Example 44]	–	1020	133	–	–	–
Cc1ccc(Nc2cc(N3CCCCC3)nc(N3CCOCC3c3ccccc3)n2)cc1 (stereo not drawn) [Example 46]	> 5000	> 5000	577	–	–	–
Cc1ccc(Nc2cc(N3CCCCC3)nc(N3CCOC(c4ccccc4)C3)n2)cc1 (stereo not drawn) [Example 47]	> 5000	3010	115	–	–	–
Cc1ccc(Nc2cc(N3CCCCC3)nc(N3CCO[C@@H](c4ccccc4)[C@H]3C)n2)cc1 [Example 48]	> 5000	4230	120	–	–	–
CN(C)c1cc(Nc2ccc(Cl)cc2)nc(Nc2ccccc2)n1 [Example 58]	> 5000	> 5000	783	–	–	–
Cc1ccc(Nc2cc(N(C)C)nc(N(C)c3ccc(C)cc3)n2)cc1 [Example 72]	–	2080	132	–	–	–
Cc1ccc(Nc2cc(N(C)C)nc(N(C)C3CCCCC3)n2)cc1 [Example 73]	–	1550	124	–	–	–
Cc1ccc(Nc2cc(N(C)C)nc(N3CCC(O)(c4ccccc4)CC3)n2)cc1 [Example 80]	–	2480	615	–	–	–
Cc1ccc(Nc2cc(N(C)C)nc(N3CCC(c4ccccc4)CC3)n2)cc1 [Example 81]	–	4790	160	–	–	–
Cc1ccc(Nc2cc(N(C)C)nc(N3CCN(c4ccccc4C)CC3)n2)cc1 [Example 85]	–	4230	72	–	–	–
Cc1ccc(Nc2cc(N(C)C)nc(N3CCN(c4ccc(C)cc4)CC3)n2)cc1 [Example 87]	–	4620	157	–	–	–
